{
  "source": "paper PMC7497641",
  "about": "“Neurotropic activity and safety of methylene-cycloalkylacetate (MCA) derivative 3-(3-allyl-2-methylenecyclohexyl) propanoic acid” (ACS Chemical Neuroscience, 2020)",
  "key": {"[1]": {"molecular_target": "T1, N-methyl-D-aspartate (NMDA) Glutamate Receptor 1A/2B (NMDAR (1A/2B)) (Homo sapiens, UniProt Q05586+Q13224)", "T1 construct": "host or cells: unnamed DiscoverX cell line", "T1 sequence (Q13224 27-1484, other chains not shown)": "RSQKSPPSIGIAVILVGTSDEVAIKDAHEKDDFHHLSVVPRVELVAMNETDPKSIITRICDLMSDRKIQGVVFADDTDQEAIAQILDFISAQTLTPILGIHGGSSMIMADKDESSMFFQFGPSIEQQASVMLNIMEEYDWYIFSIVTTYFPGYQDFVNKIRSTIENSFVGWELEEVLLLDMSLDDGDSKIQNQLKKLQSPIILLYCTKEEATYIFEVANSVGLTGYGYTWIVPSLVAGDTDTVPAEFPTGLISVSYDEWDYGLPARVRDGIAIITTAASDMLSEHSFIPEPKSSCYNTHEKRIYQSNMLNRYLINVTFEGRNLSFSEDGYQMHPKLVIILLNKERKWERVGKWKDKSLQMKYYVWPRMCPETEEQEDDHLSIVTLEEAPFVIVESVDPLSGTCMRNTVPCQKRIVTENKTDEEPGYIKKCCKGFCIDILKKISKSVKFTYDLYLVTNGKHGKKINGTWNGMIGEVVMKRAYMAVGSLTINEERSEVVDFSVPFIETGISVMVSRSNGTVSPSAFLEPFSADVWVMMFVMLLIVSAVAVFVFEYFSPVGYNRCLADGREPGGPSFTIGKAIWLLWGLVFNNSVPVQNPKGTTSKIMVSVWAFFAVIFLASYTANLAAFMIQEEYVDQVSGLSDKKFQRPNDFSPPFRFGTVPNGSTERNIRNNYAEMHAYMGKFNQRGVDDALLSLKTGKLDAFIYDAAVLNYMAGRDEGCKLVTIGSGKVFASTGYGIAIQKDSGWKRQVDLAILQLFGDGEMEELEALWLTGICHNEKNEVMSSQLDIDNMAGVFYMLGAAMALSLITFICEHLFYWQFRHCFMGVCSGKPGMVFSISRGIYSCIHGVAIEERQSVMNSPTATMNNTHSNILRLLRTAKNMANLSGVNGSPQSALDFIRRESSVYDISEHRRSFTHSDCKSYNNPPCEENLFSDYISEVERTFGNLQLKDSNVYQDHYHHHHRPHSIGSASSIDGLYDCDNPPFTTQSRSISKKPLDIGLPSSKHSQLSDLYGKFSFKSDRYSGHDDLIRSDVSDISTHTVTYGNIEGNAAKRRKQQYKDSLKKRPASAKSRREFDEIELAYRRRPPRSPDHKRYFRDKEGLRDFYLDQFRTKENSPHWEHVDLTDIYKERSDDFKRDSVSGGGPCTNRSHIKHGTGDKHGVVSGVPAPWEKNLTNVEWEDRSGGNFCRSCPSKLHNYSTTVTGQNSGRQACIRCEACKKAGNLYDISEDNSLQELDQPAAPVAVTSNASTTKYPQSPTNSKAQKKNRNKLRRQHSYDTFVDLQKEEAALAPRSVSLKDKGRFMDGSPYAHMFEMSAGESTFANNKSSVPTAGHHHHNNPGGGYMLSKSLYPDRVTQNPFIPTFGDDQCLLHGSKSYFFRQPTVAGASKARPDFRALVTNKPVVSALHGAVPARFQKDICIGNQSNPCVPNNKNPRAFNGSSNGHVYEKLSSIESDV", "experiment": "SAFETYscan Ion channel assay", "format": "cell-based"}, "[2]": {"molecular_target": "T2, cGMP-inhibited cyclic nucleotide phospho-diesterase 3A (PDE3A) (Homo sapiens, UniProt Q14432)", "T2 construct": "purchased Signal Chem", "T2 sequence (Q14432 whole entry)": "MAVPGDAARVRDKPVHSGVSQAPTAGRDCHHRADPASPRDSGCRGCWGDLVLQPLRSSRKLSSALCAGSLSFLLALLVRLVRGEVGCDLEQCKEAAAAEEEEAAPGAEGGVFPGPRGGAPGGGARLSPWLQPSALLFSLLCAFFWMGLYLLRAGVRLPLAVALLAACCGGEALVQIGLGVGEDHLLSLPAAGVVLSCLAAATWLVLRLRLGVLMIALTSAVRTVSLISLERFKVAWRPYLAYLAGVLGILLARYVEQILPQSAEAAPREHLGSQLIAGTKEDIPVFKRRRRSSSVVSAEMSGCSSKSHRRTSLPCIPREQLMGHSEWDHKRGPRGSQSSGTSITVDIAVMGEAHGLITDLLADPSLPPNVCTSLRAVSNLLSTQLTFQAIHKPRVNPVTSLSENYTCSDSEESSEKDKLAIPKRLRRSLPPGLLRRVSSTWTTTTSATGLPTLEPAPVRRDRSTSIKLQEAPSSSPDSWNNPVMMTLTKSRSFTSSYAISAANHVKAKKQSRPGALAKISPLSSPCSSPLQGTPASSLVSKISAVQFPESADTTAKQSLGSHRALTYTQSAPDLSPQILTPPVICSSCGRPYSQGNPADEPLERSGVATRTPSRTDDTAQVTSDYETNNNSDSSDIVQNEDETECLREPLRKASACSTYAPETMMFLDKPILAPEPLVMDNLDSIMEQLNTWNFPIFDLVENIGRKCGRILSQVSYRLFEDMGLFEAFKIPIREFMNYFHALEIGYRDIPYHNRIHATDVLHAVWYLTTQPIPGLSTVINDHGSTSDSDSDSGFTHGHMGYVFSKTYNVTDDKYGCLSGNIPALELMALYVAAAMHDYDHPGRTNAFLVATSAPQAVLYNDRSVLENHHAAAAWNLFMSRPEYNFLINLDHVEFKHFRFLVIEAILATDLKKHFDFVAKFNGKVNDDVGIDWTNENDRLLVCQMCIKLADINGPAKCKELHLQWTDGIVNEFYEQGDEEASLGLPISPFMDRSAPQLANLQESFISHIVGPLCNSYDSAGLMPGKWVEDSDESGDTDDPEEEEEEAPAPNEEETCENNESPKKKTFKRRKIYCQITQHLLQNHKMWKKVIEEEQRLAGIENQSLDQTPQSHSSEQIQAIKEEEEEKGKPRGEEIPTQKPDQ", "experiment": "SAFETYscan Enzymatic assay", "format": "biochemical", "conditions": "Inhibitor"}, "AKT1": {"molecular_target": "T3, AKT1 (Homo sapiens, UniProt P31749)", "T3 construct": "AKT1, amino acids 104-480, Carna (cat. & lot #: 01 -101,; purchased Carna 01-101", "T3 sequence (P31749 104-480)": "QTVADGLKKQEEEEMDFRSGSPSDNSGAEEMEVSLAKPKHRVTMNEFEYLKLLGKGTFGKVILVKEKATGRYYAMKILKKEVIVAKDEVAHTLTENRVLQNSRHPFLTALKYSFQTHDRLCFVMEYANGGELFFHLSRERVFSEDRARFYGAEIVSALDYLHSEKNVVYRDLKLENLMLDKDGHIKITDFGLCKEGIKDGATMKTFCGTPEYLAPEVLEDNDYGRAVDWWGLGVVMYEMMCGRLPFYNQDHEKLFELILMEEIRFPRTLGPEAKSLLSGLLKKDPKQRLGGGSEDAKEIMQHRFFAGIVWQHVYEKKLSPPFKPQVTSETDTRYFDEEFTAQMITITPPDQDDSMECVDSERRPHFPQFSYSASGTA", "experiment": "PhosphoSens CSox based kinase assay", "format": "biochemical", "conditions": "5 μM HU-MCA-13", "from_the_text": "(§1) The initial focus was to measure the modulatory activity in vitro of MCA-13 on protein kinases which were reported to be involved in induction of neurite outgrowth.[18],[43] To do this, we took advantage of a powerful method to measure the activity of recombinant protein kinases using a homogeneous and continuous (kinetic) format, where the level of chelation-enhanced fluorescence (CHEF) is directly proportional to the amount of phosphorylated, real-time sensors consisting of sulfonamido-oxine (Sox) chromophore linked to a peptide or protein substrates of selective kinases.[44] This assay is ideal for elucidating drug mechanism of action and is increasingly being applied earlier in the drug development workflow to address off target effects and/or the challenges and opportunities for next generation protein kinase inhibitors.[45] Since neurotrophins induce neurite outgrowth by activating the different tropomyosin kinase receptors (Trk), and small molecules agonists of Trk receptors can selectively activate Trks,[46] we first investigated the ability of HU-MCA-13 to modulate TRKA, TRKB and TRKC phosphorylation activities (Supporting Information, Figure S3-2). […] The TRKs constructs used in the assay contained only the intracellular kinase domain (amino acids 442–786) and therefore presently we cannot exclude that HU-MCA-13 may interact with the TRKs extracellular domain thereby inducing the conformational change required for the kinase domain activation. […] Moreover, no effects of HU-MCA-13were found on other kinases (ASK1, ERK2, JNK3, p38α, CDK5, KDR-VEGFR, AKT1, GSK3β, PDGFRβ, PKACα, PKC, CK1, IKKβ) which stimulate neurite outgrowth. Also, no effects were observed of HU-MCA-13 on kinases (EGFR, IGF1R, FGFR 1 and 2, CAMK2α,) which inhibit neurite outgrowth or calcineurin phosphatase which dephosphorylates the neurite outgrowth stimulatory protein, cofilin.[47]\n(§2) MCA-13 safety b y in vitro eval uati on usi ng Phos pho Sens®C Soxb ased kinase […]\n(§3) Method: Kinase Activity Measurements\n(§4) Kinase activity was measured continuously using the PhosphoSens®technology (AssayQuant Technologies Inc., Marlborough, MA) according to the manufacturers’ recommendations (http://www.assayquant.com/) . This one-step homogeneous assay use s chelation-enh anced fluorescence via optimized substrate sensors unique for each kinase, containing the unnatural fluorogenic amino-acid Sox.\n(§5) The following kinases which, upon stimulation or inhibition with small molecule modulators, induced neurite outgrowth, were obtained from different companies and were used in this study at the following concentrations: 2.\n(§6) 25 µL final reaction volume including : 2.5 µl Sox-based substrate (10 x), 17.5 µl reaction mix with AT P, 5.0 µL Kinase [5x in EDB (Enzyme Dilution Buffer : 20 mM TRIS, pH 8.0, 0.01% Brij -35, 0.1 mM EGTA, 5% Glycerol, 1 mM DTT, 1 mg/mL Bovine Serum Albumin]. 5-45 min preincubation (all except EDB/kinase) at 30 °C of substrate in reaction mix and ATP ensuring that the progress kinetic curve for the background fluorescence w as flat. Reaction was run at 30 °C for […]\n(§7) Final Reaction Conditions.\n(§8) Protein kinase activity was determined in 54 mM HEPES, pH 7.5 1 mM ATP 1.2 mM DTT (none in ASK1) 0.012% Brij-35 1% glycerol 0.2 mg/ml BSA 0.52 mM EGTA (none in assays of CAMK2α, PKCε, PKCι, Calcineurin A/B) 140 µM phosphatidylserine/3.8 µM diacylglycerol (PKCε, PKCι only) 5 ng/µl calmodulin/0.4 mM CaCl2 (CAMK2α, Calcineurin A/B only) 10 mM […]\n(§9) IKKβ, AKT1, GSK3β, PKCε, PKCι, PKACα, KDR, CK1δ, EGFR, ASK1, IGF1R, CAMK2α, DLK, FGFR2, FGFR1) in the presence or absence of 5 µ M H U-MCA-13 test compound. All components e xcept enzyme were equilibrated to 30 °C prior to setting up reactions run in Corning, 384-well, white flat round bottom polystyrene NBS microplates (Cat. #3824) after sealing using optically-clear adhesive film [TopSealA -Plus plate seal, PerkinElmer (Cat. #6050185)], applied with a roller to eliminate evaporation and resulting drift. Europium was added to a final […]"}, "ASK1": {"molecular_target": "T4, ASK1 (Homo sapiens, UniProt Q99683)", "T4 construct": "ASK1, amino acids 1-1374, Invitrogen; purchased Invitrogen PV3809", "experiment": "PhosphoSens CSox based kinase assay", "format": "biochemical", "conditions": "5 μM HU-MCA-13", "from_the_text": "as §1, §2, §3, §4, §5, §6, §7, §8, §9"}, "FGFR 2": {"molecular_target": "T5, FGFR 2 (Homo sapiens, UniProt P21802)", "T5 construct": "purchased Carna 08-134", "T5 sequence (P21802 399-821)": "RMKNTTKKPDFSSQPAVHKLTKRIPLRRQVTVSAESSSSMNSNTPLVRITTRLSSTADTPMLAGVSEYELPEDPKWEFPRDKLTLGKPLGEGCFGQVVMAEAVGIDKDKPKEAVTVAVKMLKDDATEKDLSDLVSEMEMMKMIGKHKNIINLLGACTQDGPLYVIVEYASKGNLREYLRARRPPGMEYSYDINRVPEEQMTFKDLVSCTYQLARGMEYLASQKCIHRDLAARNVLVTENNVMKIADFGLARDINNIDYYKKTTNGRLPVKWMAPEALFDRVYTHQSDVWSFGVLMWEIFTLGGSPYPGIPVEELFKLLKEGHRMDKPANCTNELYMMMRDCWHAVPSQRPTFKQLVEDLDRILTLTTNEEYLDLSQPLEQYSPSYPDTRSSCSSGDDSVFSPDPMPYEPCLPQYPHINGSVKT", "experiment": "PhosphoSens CSox based kinase assay", "format": "biochemical", "conditions": "5 μM HU-MCA-13", "from_the_text": "as §1, §2, §3, §4, §5, §6, §7, §8, §9"}, "GSK3β": {"molecular_target": "T6, GSK3β (Homo sapiens, UniProt P49841)", "T6 construct": "GSK3β, amino acids 1 -420, Carna (cat. & lot #: 04-141/13CBS-; purchased Carna 04-141", "experiment": "PhosphoSens CSox based kinase assay", "format": "biochemical", "conditions": "5 μM HU-MCA-13", "from_the_text": "as §1, §2, §3, §4, §5, §6, §7, §8, §9"}, "IKKβ": {"molecular_target": "T7, IKKβ (Homo sapiens, UniProt O14920)", "T7 construct": "purchased Invitrogen PV3836", "T7 sequence (O14920 whole entry)": "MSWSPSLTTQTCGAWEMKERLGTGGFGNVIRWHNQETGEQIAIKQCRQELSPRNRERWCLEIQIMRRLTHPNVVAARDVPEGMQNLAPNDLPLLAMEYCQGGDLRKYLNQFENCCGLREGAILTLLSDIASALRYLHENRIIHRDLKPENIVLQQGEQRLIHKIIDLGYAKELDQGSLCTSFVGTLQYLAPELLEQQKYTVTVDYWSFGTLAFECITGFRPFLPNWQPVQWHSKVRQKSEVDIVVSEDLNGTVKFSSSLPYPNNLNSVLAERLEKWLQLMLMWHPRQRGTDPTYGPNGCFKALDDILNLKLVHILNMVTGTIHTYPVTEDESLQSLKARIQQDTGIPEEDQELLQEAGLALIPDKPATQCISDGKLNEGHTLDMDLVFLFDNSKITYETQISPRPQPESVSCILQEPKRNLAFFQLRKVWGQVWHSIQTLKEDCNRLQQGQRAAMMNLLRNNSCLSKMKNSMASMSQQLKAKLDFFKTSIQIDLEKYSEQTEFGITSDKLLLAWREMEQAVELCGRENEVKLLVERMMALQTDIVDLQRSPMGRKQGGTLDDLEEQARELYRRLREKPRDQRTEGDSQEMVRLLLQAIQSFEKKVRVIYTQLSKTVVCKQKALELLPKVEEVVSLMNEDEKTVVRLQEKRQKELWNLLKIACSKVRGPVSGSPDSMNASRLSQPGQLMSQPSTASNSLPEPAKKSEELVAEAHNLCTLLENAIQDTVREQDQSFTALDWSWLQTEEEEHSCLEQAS", "experiment": "PhosphoSens CSox based kinase assay", "format": "biochemical", "conditions": "5 μM HU-MCA-13", "from_the_text": "as §1, §2, §3, §4, §5, §6, §7, §8, §9"}, "PKC": {"tested_on": "PKC", "experiment": "PhosphoSens CSox based kinase assay", "format": "biochemical", "conditions": "5 μM HU-MCA-13", "from_the_text": "as §1, §2, §3, §4, §5, §6, §7, §8, §9"}, "TRKC": {"molecular_target": "T8, TRKC (Homo sapiens, UniProt Q16288)", "T8 construct": "TRKC, amino acids 45 6-825, BPS Bio; purchased BPS Bio 40282 (lot 140205-G2)", "T8 sequence (Q16288 456-825 isoform Q16288-3 limits assumed)": "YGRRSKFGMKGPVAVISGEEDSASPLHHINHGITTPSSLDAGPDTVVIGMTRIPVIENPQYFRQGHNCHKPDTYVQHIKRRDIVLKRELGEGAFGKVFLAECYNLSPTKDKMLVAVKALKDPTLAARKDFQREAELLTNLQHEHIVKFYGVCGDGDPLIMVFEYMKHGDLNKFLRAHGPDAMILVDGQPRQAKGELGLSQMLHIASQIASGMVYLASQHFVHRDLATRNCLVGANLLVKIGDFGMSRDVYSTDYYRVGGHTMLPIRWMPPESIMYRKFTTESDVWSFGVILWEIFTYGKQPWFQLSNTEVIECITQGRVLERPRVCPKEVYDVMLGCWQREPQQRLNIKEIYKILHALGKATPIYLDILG", "experiment": "PhosphoSens CSox based kinase assay", "format": "biochemical", "conditions": "5 μM HU-MCA-13; no effect on initial rate, small delay in later stage of progress curve", "from_the_text": "as §1, §2, §3, §4, §5, §6, §7, §8, §9"}, "p38α": {"molecular_target": "T9, p38α (Homo sapiens, UniProt Q16539)", "T9 construct": "p38α, amino acids 9-352, Carna (cat. & lot #: 04-152,; purchased Carna 04-152", "T9 sequence (Q16539 9-352)": "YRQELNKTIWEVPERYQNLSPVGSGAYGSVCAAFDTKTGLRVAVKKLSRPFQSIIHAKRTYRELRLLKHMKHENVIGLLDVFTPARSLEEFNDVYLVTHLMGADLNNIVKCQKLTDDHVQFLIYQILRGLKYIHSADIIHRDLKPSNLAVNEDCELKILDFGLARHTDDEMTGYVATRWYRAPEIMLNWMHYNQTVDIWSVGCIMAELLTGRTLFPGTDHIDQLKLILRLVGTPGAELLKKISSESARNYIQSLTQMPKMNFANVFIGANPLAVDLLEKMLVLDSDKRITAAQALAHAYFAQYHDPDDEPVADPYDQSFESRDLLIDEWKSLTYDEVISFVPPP", "experiment": "PhosphoSens CSox based kinase assay", "format": "biochemical", "conditions": "5 μM HU-MCA-13", "from_the_text": "as §1, §2, §3, §4, §5, §6, §7, §8, §9"}},
  "data": [
    {"smiles": "C=CCC1CCCC(CCC(=O)O)C1=C", "note": "(stereo not drawn) [HU-MCA-13, 3-(3-allyl-2-methylenecyclohexyl)propanoic acid]", "values": [
      {"measurement": "EC50", "setting": "[1]", "result": "> 10", "unit": "µM"},
      {"measurement": "IC50", "setting": "[1]", "result": "> 10", "unit": "µM"},
      {"measurement": "inhibition at 10 µM", "setting": "[2]; 10 μM, read-out: MCA-13 Max. Responce", "result": 3.21, "unit": "%"},
      {"measurement": "IC50", "setting": "[2]; read-out: RC50 (the source's name)", "result": "> 10", "unit": "µM"},
      {"measurement": "effect on kinase activity", "setting": "AKT1", "result": "no effects"},
      {"measurement": "effect on kinase activity", "setting": "ASK1", "result": "no effects"},
      {"measurement": "effect on kinase activity", "setting": "FGFR 2", "result": "no effects"},
      {"measurement": "effect on kinase activity", "setting": "GSK3β", "result": "no effects"},
      {"measurement": "effect on kinase activity", "setting": "IKKβ", "result": "no effects"},
      {"measurement": "effect on kinase activity", "setting": "PKC", "result": "no effects"},
      {"measurement": "modulation of phosphorylation activity", "setting": "TRKC", "result": "slight inhibitory effect"},
      {"measurement": "effect on kinase activity", "setting": "p38α", "result": "no effects"}
    ]}
  ]
}
